Reference: patent publication US9615577B2, “Herbicidally active cyclic dione compounds, or derivatives therefor, substituted by a phenyl which has an alkynyl-containing substituent” (Syngenta Limited, priority 2012, dated 2017)

What was measured:
Type in all cases: in vivo
[1] = tested on: Alopecurus myosuroides (ALOMY); experiment: Test 1A glasshouse assay for herbicidal activity, pre-emergence; conditions: 312 h, 250 g/ha, evaluated after 13 days, read-out: percentage phytotoxicity ALOMY
Summary of the method: (§1)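 Test plants grew from seed in standard soil under controlled glasshouse conditions (24/16 °C, 14 h light, 65% humidity) and received an aqueous acetone (50:50) spray with 0.5% Tween 20, either one day after sowing or after eight days. Damage was rated visually as percent phytotoxicity 13 days later.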

[2] = tested on: Amaranthus retroflexus (AMARE); experiment: as above; conditions: 312 h, 250 g/ha, evaluated after 13 days, read-out: percentage phytotoxicity AMARE
Summary of the method: as §1

[3] = tested on: Echinochloa crus-galli (ECHCG); experiment: as above; conditions: 312 h, 250 g/ha, evaluated after 13 days, read-out: percentage phytotoxicity ECHCG
Summary of the method: as §1

Setaria faberi (SETFA) [4] = experiment: as above; conditions: 312 h, 250 g/ha, evaluated after 13 days, read-out: percentage phytotoxicity SETFA
Summary of the method: as §1

[5] = tested on: Beta vulgaris (BEAVA, sugar beet); experiment: Test 1B glasshouse assay for herbicidal activity, pre-emergence; conditions: 480 h, 20 DAA, read-out: percentage phytotoxicity BEAVA
Experimental: (§2) Seeds of a variety of monocotyledonous and dicotyledonous test plants are sown in standard soil in pots. The plants are cultivated for one day (for pre-emergence) or for about 12 days (range=10-13 days) (for post-emergence) under controlled conditions in a glasshouse (warm climate species at 24/18° C., cool climate species at 20/16° C., both at day/night; 16 hours light; 65% humidity).
(§3) An “instant formulation”, known as the “IF50”, containing 50 g/liter (i.e. 5% w/v) of the “technical” (i.e. unformulated) active ingredient is prepared by dissolving the active ingredient in a mixture of organic solvents and emulsifier, details of which are provided in the Table below. This IF50 is then mixed with a small, variable amount of acetone to aid dissolution, before addition of a 0.2% v/v aqueous solution of the adjuvant X-77 (which is a mixture of alkyl aryl polyoxyethylene glycols and free fatty acids in isopropanol, CAS Registry number 11097-66-8), as the aqueous diluent, to form an aqueous spray solution which contains a predetermined concentration of the active ingredient (which varies depending on the application rate of the active ingredient to the plants) and 0.2% v/v of the adjuvant X-77. This aqueous spray solution is then sprayed onto the plants, after one day's cultivation (for pre-emergence) or after about 12 days' cultivation (for post-emergence).
(§4) The test plants are then grown on, in a glasshouse (greenhouse) under controlled conditions (at either 24/18° C. or 20/16° C. (day/night) as mentioned above; 16 hours light; 65% humidity) and are watered twice daily. Either 15 days after application of the herbicide (15 DAA) (for post-emergence), or 20 days after application of the herbicide (20 DAA) (for pre-emergence), the test plants are evaluated visually, and an assessed percentage phytotoxicity score is given for each herbicidal application on each plant species (where 100%=total damage to plant; 0%=no damage to plant).
(§5) Cool climate crop plants: Triticum aestivum (TRZAW, winter wheat), Brassica napus (BRSNN, rape, also called oilseed rape or rapeseed), Beta vulgaris (BEAVA, sugar beet).

[6] = tested on: Glycine max (GLXMA, soybean); experiment: as above; conditions: 480 h, 20 DAA, read-out: percentage phytotoxicity GLXMA
Experimental: as §2, §3, §4
Warm climate crop plants: Glycine max (GLXMA, soybean).

[7] = tested on: Alopecurus myosuroides (ALOMY); experiment: as above; conditions: 480 h, 20 DAA, read-out: percentage phytotoxicity ALOMY
Experimental: as §2, §3, §4
(§6) Cool climate (“cool season”) grassy monocotyledonous weeds: Alopecurus myosuroides (ALOMY), Avena fatua (AVEFA), Lolium perenne (LOLPE).

Avena fatua (AVEFA) = experiment: as above; conditions: 480 h, 20 DAA, read-out: percentage phytotoxicity AVEFA
Experimental: as §2, §3, §4, §6

Lolium perenne (LOLPE) = experiment: as above; conditions: 480 h, 20 DAA, read-out: percentage phytotoxicity LOLPE
Experimental: as §2, §3, §4, §6

[8] = tested on: Digitaria sanguinalis (DIGSA); experiment: as above; conditions: 480 h, 20 DAA, read-out: percentage phytotoxicity DIGSA
Experimental: as §2, §3, §4
(§7) Warm climate (“warm season”) grassy monocotyledonous weeds: Setaria faberi (SETFA), SORVU (Sorghum bicolor (L.) Moench ssp. Bicolor, or Sorghum vulgare Pers.), Digitaria sanguinalis (DIGSA), Echinochloa crus-galli (ECHCG), and Brachiaria plantaginea (BRAPL).

[9] = tested on: Echinochloa crus-galli (ECHCG); experiment: as above; conditions: 480 h, 20 DAA, read-out: percentage phytotoxicity ECHCG
Experimental: as §2, §3, §4, §7

[10] = tested on: SORVU (Sorghum bicolor (L.) Moench ssp. Bicolor, or Sorghum vulgare Pers.); experiment: as above; conditions: 480 h, 20 DAA, read-out: percentage phytotoxicity SORVU
Experimental: as §2, §3, §4, §7

Setaria faberi (SETFA) [11] = experiment: as above; conditions: 480 h, 20 DAA, read-out: percentage phytotoxicity SETFA
Experimental: as §2, §3, §4, §7

[12] = tested on: Beta vulgaris (BEAVA, sugar beet); experiment: Test 1B glasshouse assay for herbicidal activity, post-emergence; conditions: 360 h; for plant injury at 30 g/ha: 30 g/ha application rate; for plant injury at 125 g/ha: 125 g/ha application rate; for plant injury at 60 g/ha: 60 g/ha application rate
Experimental: as §2, §3, §4, §5

[13] = tested on: Brassica napus (BRSNN, rape); experiment: as above; conditions: 360 h; for plant injury at 30 g/ha: 30 g/ha application rate; for plant injury at 125 g/ha: 125 g/ha application rate; for plant injury at 60 g/ha: 60 g/ha application rate
Experimental: as §2, §3, §4, §5

[14] = tested on: Triticum aestivum (TRZAW, winter wheat); experiment: as above; conditions: 360 h; for plant injury at 30 g/ha: 30 g/ha application rate; for plant injury at 125 g/ha: 125 g/ha application rate; for plant injury at 60 g/ha: 60 g/ha application rate
Experimental: as §2, §3, §4, §5

Compound | pest or weed control at 250 g/ha [1] [%] | pest or weed control at 250 g/ha [2] [%] | pest or weed control at 250 g/ha [3] [%] | pest or weed control at 250 g/ha (Setaria faberi (SETFA) [4]) [%] | plant injury at 30 g/ha [12] [%] | plant injury at 125 g/ha [12] [%] | plant injury at 30 g/ha [13] [%] | plant injury at 125 g/ha [13] [%] | plant injury at 30 g/ha [14] [%] | plant injury at 125 g/ha [14] [%] | plant injury at 125 g/ha [5] [%] | plant injury at 125 g/ha [6] [%] | pest or weed control at 125 g/ha [7] [%] | pest or weed control at 125 g/ha (Avena fatua (AVEFA)) [%] | pest or weed control at 125 g/ha (Lolium perenne (LOLPE)) [%] | pest or weed control at 125 g/ha [8] [%] | pest or weed control at 125 g/ha [9] [%] | pest or weed control at 125 g/ha [10] [%] | pest or weed control at 125 g/ha (Setaria faberi (SETFA) [11]) [%] | other results
CC#Cc1cc(Cl)c(C2C(=O)C3CCC(C3)C2=O)c(OCC)c1 (stereo not drawn) [Compound A-16] | 100 | 80 | 100 | 100 | 0 | 0 | 10 | 50 | 10 | 60 |  |  |  |  |  |  |  |  |  | plant injury at 250 g/ha [5]: 0%; plant injury at 250 g/ha [6]: 20%; pest or weed control at 250 g/ha [7]: 50%; pest or weed control at 250 g/ha (Avena fatua (AVEFA)): 40%; pest or weed control at 250 g/ha (Lolium perenne (LOLPE)): 70%; pest or weed control at 250 g/ha [8]: 100%; pest or weed control at 250 g/ha [9]: 80%; pest or weed control at 250 g/ha [10]: 80%; pest or weed control at 250 g/ha (Setaria faberi (SETFA) [11]): 90%
CC#Cc1cc(C)c(C2C(=O)C3CCC(C3)C2=O)c(OC)c1 (stereo not drawn) [Compound A-10] | 100 | 0 | 100 | 100 | 20 | 20 | 40 | 60 | 60 | 80 | 0 | 0 | 80 | 60 | 100 | 90 | 90 | 80 | 80 | 
CC#Cc1cc(C)c(C2=C(OC(C)=O)CC(c3ccccn3)CC2=O)c(C)c1 (stereo not drawn) [Compound A-15] | 100 | 40 | 100 | 100 | 30 | 30 | 60 | 70 | 70 | 80 | 0 | 10 | 80 | 50 | 90 | 100 | 80 | 80 | 80 | 
CC#Cc1cc(C)c(C2C(=O)CC(CC3CCOCC3)CC2=O)c(C)c1 (stereo not drawn) [Compound A-9] | 100 | 100 | 100 | 100 | 0 |  | 50 |  | 60 |  | 20 | 10 | 80 | 80 | 100 | 100 | 90 | 90 | 100 | 
CC#Cc1ccc(C2C(=O)C(C)(C)OC(C)(C)C2=O)c(C)c1 [Compound A-1] | 90 | 0 | 80 | 90 |  |  |  |  |  |  |  |  |  |  |  |  |  |  |  | plant injury at 500 g/ha ([5]; 500 g/ha): 10%; plant injury at 500 g/ha ([6]; 500 g/ha): 10%; pest or weed control at 500 g/ha ([7]; 500 g/ha): 70%; pest or weed control at 500 g/ha (Avena fatua (AVEFA); 500 g/ha): 10%; pest or weed control at 500 g/ha (Lolium perenne (LOLPE); 500 g/ha): 100%; pest or weed control at 500 g/ha ([8]; 500 g/ha): 60%; pest or weed control at 500 g/ha ([9]; 500 g/ha): 100%; pest or weed control at 500 g/ha ([10]; 500 g/ha): 60%; pest or weed control at 500 g/ha (Setaria faberi (SETFA) [11]; 500 g/ha): 50%; plant injury at 60 g/ha [12]: 30%; plant injury at 60 g/ha [13]: 70%; plant injury at 60 g/ha [14]: 80%
Cc1cc(C#CCl)cc(C)c1C1C(=O)C2CCC(C2)C1=O (stereo not drawn) [Compound A-6] | 100 | 30 | 100 | 100 | 40 |  | 40 |  |  |  | 0 | 0 | 60 | 40 | 80 | 100 | 60 | 80 | 80 | plant injury at 60 g/ha [12]: 50%; plant injury at 60 g/ha [13]: 60%; plant injury at 60 g/ha [14]: 40%
CC#Cc1cc(Cl)c(C2C(=O)C3CCC(C)(C2=O)C3(C)C)c(OC)c1 (stereo not drawn) [Compound A-17] | 90 | 60 | 100 | 90 |  |  |  |  |  |  |  |  |  |  |  |  |  |  |  | plant injury at 250 g/ha [5]: 0%; plant injury at 250 g/ha [6]: 10%; pest or weed control at 250 g/ha [7]: 0%; pest or weed control at 250 g/ha (Avena fatua (AVEFA)): 60%; pest or weed control at 250 g/ha (Lolium perenne (LOLPE)): 50%; pest or weed control at 250 g/ha [8]: 100%; pest or weed control at 250 g/ha [9]: 100%; pest or weed control at 250 g/ha [10]: 50%; pest or weed control at 250 g/ha (Setaria faberi (SETFA) [11]): 50%; plant injury at 250 g/ha ([12]; 250 g/ha application rate): 10%; plant injury at 250 g/ha ([13]; 250 g/ha application rate): 10%; plant injury at 250 g/ha ([14]; 250 g/ha application rate): 10%
